Test results as given in the CheMixHub ionic liquid set.
± gives the uncertainty stated by the source.

Assay: xn = mol fraction of the nth substance listed
Conditions: for viscosity: 101 kPa; for electrical conductivity: 100 kPa, frequency 0.005 MHz

OC1OC[C@@H](O)[C@H](O)[C@H]1O (some centres undefined) + O + CCCCCCCCn1cc[n+](C)c1.[Br-]
298.15 K
Conditions	viscosity [mPa·s]
x1 = 0.0001923, x3 = 0.001831	0.966 ± 0.014
x1 = 0.0001932, x3 = 0.003598	1.027 ± 0.015
x1 = 0.0002045, x3 = 0.00713	1.178 ± 0.015
x1 = 0.0002136, x3 = 0.005442	1.104 ± 0.015
x1 = 0.0003697, x3 = 0.00183	0.97 ± 0.014
x1 = 0.0003826, x3 = 0.003597	1.03 ± 0.015
x1 = 0.0004154, x3 = 0.005441	1.11 ± 0.015
x1 = 0.00056, x3 = 0.00183	0.976 ± 0.014
x1 = 0.0005832, x3 = 0.003596	1.035 ± 0.015
x1 = 0.000592, x3 = 0.00544	1.115 ± 0.015
x1 = 0.0006052, x3 = 0.007127	1.189 ± 0.016
x1 = 0.0007465, x3 = 0.00183	0.981 ± 0.014
x1 = 0.0007705, x3 = 0.003595	1.04 ± 0.015
x1 = 0.0007917, x3 = 0.005439	1.121 ± 0.015
x1 = 0.0008153, x3 = 0.007126	1.195 ± 0.016
x1 = 0.0009407, x3 = 0.003595	1.044 ± 0.015
x1 = 0.0009495, x3 = 0.001829	0.985 ± 0.015
x1 = 0.0009701, x3 = 0.005438	1.127 ± 0.015
x1 = 0.0009957, x3 = 0.007124	1.202 ± 0.016
x1 = 0.001112, x3 = 0.001829	0.989 ± 0.015
x1 = 0.001145, x3 = 0.003594	1.051 ± 0.015
x1 = 0.00115, x3 = 0.005437	1.13 ± 0.015
x1 = 0.001216, x3 = 0.007123	1.207 ± 0.016
x1 = 0.001289, x3 = 0.001829	0.993 ± 0.015
x1 = 0.001332, x3 = 0.003593	1.054 ± 0.015
x1 = 0.00134, x3 = 0.005436	1.135 ± 0.015
x1 = 0.00141, x3 = 0.007121	1.213 ± 0.016
x1 = 0.001459, x3 = 0.001828	0.996 ± 0.015
x1 = 0.00151, x3 = 0.003593	1.059 ± 0.015
x1 = 0.00153, x3 = 0.005435	1.14 ± 0.015
x1 = 0.001602, x3 = 0.00712	1.219 ± 0.016
x1 = 0.001647, x3 = 0.001828	1 ± 0.015
x1 = 0.001708, x3 = 0.003592	1.065 ± 0.015
x1 = 0.001741, x3 = 0.005433	1.147 ± 0.015
x1 = 0.001813, x3 = 0.007119	1.224 ± 0.016

OC1OC[C@@H](O)[C@H](O)[C@H]1O (some centres undefined) + O + CCCCCC[n+]1ccn(C)c1.[Br-]
298.15 K
Conditions	viscosity [mPa·s]
x1 = 0.0001973, x3 = 0.001843	0.957 ± 0.014
x1 = 0.000198, x3 = 0.003653	1.007 ± 0.015
x1 = 0.0002099, x3 = 0.005424	1.054 ± 0.015
x1 = 0.0002123, x3 = 0.007151	1.106 ± 0.015
x1 = 0.0003779, x3 = 0.001843	0.961 ± 0.014
x1 = 0.0003808, x3 = 0.003652	1.011 ± 0.015
x1 = 0.0003928, x3 = 0.005423	1.059 ± 0.015
x1 = 0.0004009, x3 = 0.00715	1.112 ± 0.015
x1 = 0.0005548, x3 = 0.001843	0.965 ± 0.014
x1 = 0.000588, x3 = 0.003652	1.016 ± 0.015
x1 = 0.0005968, x3 = 0.005422	1.064 ± 0.015
x1 = 0.0005973, x3 = 0.007149	1.119 ± 0.015
x1 = 0.000739, x3 = 0.001842	0.97 ± 0.014
x1 = 0.0007594, x3 = 0.003651	1.02 ± 0.015
x1 = 0.0007857, x3 = 0.007147	1.124 ± 0.015
x1 = 0.0007911, x3 = 0.005421	1.069 ± 0.015
x1 = 0.0009323, x3 = 0.001842	0.974 ± 0.014
x1 = 0.0009495, x3 = 0.00365	1.025 ± 0.015
x1 = 0.0009642, x3 = 0.00542	1.074 ± 0.015
x1 = 0.0009957, x3 = 0.007146	1.13 ± 0.015
x1 = 0.001116, x3 = 0.001842	0.979 ± 0.014
x1 = 0.001147, x3 = 0.005419	1.079 ± 0.015
x1 = 0.001153, x3 = 0.003649	1.029 ± 0.015
x1 = 0.001184, x3 = 0.007144	1.134 ± 0.015
x1 = 0.0013, x3 = 0.001841	0.982 ± 0.014
x1 = 0.001326, x3 = 0.003649	1.034 ± 0.015
x1 = 0.001352, x3 = 0.005418	1.083 ± 0.015
x1 = 0.001359, x3 = 0.007143	1.138 ± 0.015
x1 = 0.001475, x3 = 0.001841	0.986 ± 0.015
x1 = 0.001497, x3 = 0.003648	1.039 ± 0.015
x1 = 0.001552, x3 = 0.005417	1.089 ± 0.015
x1 = 0.001588, x3 = 0.007142	1.143 ± 0.015
x1 = 0.001657, x3 = 0.001841	0.99 ± 0.015
x1 = 0.001681, x3 = 0.003648	1.042 ± 0.015
x1 = 0.001708, x3 = 0.005416	1.09 ± 0.015
x1 = 0.001731, x3 = 0.00714	1.148 ± 0.015

CCCCn1cc[n+](C)c1C.O=S(=O)([N-]S(=O)(=O)C(F)(F)F)C(F)(F)F + O=C1CCCO1
Conditions	electrical conductivity [S/m]
293.15 K, x2 = 0.1014	0.207 ± 0.006
293.15 K, x2 = 0.3	0.302 ± 0.009
293.15 K, x2 = 0.8001	1.12 ± 0.034
298.15 K, x2 = 0.8996	1.3 ± 0.039
303.15 K, x2 = 0.3	0.451 ± 0.014
303.15 K, x2 = 0.9468	1.01 ± 0.033
308.15 K, x2 = 0.3	0.538 ± 0.016
308.15 K, x2 = 0.7012	1.28 ± 0.039
313.15 K, x2 = 0.1014	0.479 ± 0.014
313.15 K, x2 = 0.7012	1.43 ± 0.043
318.15 K, x2 = 0	0.51 ± 0.015
318.15 K, x2 = 0.7012	1.58 ± 0.047
323.15 K, x2 = 0	0.599 ± 0.018
